Columns and labels:
[1] = Prediction of permeability coefficient Kp and human steady-state plasma level
Source text: A further approach to estimating human plasma levels following transdermal administration was outlined by Howes et al. (ATLA, 24:81-106, 1996) and was based on a mass balance approach whereby the input and output quantities of drug are considered equal. Rewriting “input=output” for transdermal systems gives:
A×Kp×Cappl=CL×Cp Eqn. 10.6
where A is the area of application, Kp is the permeability coefficient of the drug through the skin, Cappl is the applied concentration, CL is the plasma clearance and Cp is the steady-state plasma concentration of the drug. Rearranging the equation to estimate Cp gives: […]
A number of methods for determining Kp based on the lipophilicity and molecular weight of the drug in question are available. Potts and Guy (Pharm. Res., 9:663-669, 1992) found the following relationship:
Another method of calculating Kp which makes use of in vitro data is described by Hewitt et al. (In vitro cutaneous disposition of a topical diclofenac lotion in human skin: Effect of a multidose regimen, in Percutaneous Absorption, Bronaugh, R. L. and Maibach, H. I. (Eds.), Marcel Dekker Inc., New York, 1999):
Kp(cm/h)=absorption(μg)/[area×concentration(μg/cm^3)×time] Eqn. 10.11
Values for Kp were calculated using Eqns. 10.9 and 10.10 using the MW value for Compound B di-oleate (1,767 g/mol) and its previously determined KOW value (340.43). Additionally, Eqn. […]

[2] = In vitro transdermal permeation, diffusion cell, pig epidermis; format: in vitro ADME, domestic pigs
Procedure: The viable epidermal layer was removed from the flanks of freshly sacrificed four month-old female domestic pigs. The flank area of each animal was carefully shaved and the upper 200 μm of skin (Meyer, W., et al., Curr. Prob. Dermatol., 7: 39-52, 1978; de Jalón, et al., J. Control. Rel., 75:191-197, 2001) was harvested using an electric dermatome (Robbins Instruments, Chatham, N.J., U.S.A.). Pigskin epidermal specimens were frozen at −18° C. between layers of PBS-soaked tissue paper enclosed in aluminum foil for up to two weeks prior to use in in vitro permeation studies.
A custom made finite dosing diffusion cell (AGB Scientific, Dublin, Ireland, FIG. 1) based upon and modified from the Keshary-Chien type diffusion cell was used for in vitro permeation studies.
Three to five diffusion cells were used in each permeation experiment and monitoring was performed over a 48 hour period. The cells were linked in series to a thermostatically controlled circulation bath set at 35° C. to mimic human skin surface temperature. Each cell was placed on a stir-plate set at a defined stirring rate of 1,000 rpm. The surface area for permeation provided by each cell was 3.14 cm^2.
Data collected from each permeation study included:
1) the average maximum flux obtained in 48 hours (Jmax),
2) the total absorption characterized as the total weight of peptide delivered transdermally into the receiver compartment over a 48 hour period,
3) the lag time to detectable flux which was equivalent to the latest sampling time at which no peptide was detectable by HPLC analysis of the receiver solution, and
4) an equivalent 48-hour steady state flux was determined by obtaining the slope of the best-fit line for a plot of cumulative flux per unit area versus time (described by McDaid, D. M. et al., Int. J. Pharm., 133:71-83, 1996).
Fresh hairless mouse skin samples or fresh or freshly thawed pig skin samples were mounted onto the diffusion cell with the SC topmost and in contact with the donor system. A rubber or plastic ring was placed on top of the skin sample to secure it in position. The combination of the diffusion cell top, the skin and the rubber ring was securely fastened together by means of a threaded cap. A recorded volume of receiver solution was added to the receiver compartment and maintained at 35° C. The receiver solution was 60/40 (v/v) PBS/propylene glycol (pH 7.1). The propylene glycol fraction was used to increase the solubility of the somatostatin-fatty acid salts. Previous work reported by Morgan et al. (J. Pharm. Sci., 87:1213-1218, 1998) has shown that a 50/50 water/propylene glycol receptor solution had no detrimental effect on the barrier integrity of both hairless mouse and porcine skin.
The receiver solution was allowed to equilibrate at 35° C. for 30 minutes. The experiment was initiated by the application of 1 ml of donor solution containing approximately 5 mg free base peptide in DMSO to the skin surface followed by sealing of the donor compartment with Parafilm®. A narrow-bore hypodermic needle was used to withdraw 1 ml samples from the receiver compartment via the sampling port; at each sampling time, an equal volume of drug-free receiver solution was immediately added back to the receiver compartment. Samples were analyzed by HPLC.
HPLC determination of peptide content in the receiver solution along with the known surface area of skin used (3.14 cm^2) allowed for calculation of transdermal flux (in units of μg/cm^2/hr) for each time point. Panels 1 and 2 of FIG. 2 show flux profiles obtained for the oleate salts of Compound A and Compound B in DMSO which far exceeded the flux profiles for the myristate, octanoate, decanoate, linoleate, nonanote, acetate and laurate salts of Compound A as well as the acetate salt of Compound B in DMSO. […]

[3] = Solubility of somatostatin fatty-acid salts; format: physicochemical; settings: 24 hours
Procedure: The solubilities of Compound A and Compound B oleate were determined in deionized water, phosphate-buffered saline (PBS; pH 7.4) and n-octanol. Analysis was carried out by placing an excess of each salt with 1 ml of the selected solvent into four 4 ml sealed HPLC vials. The samples were allowed to equilibrate at 37° C. for 24 hours with shaking. Each of the four dispersions was then filtered through a 0.2 μm nylon membrane (Pall Gelman, Ann Arbor, Mich., U.S.A.). Prior to HPLC analysis, the n-octanol samples were diluted 1:100 with methanol and the PBS and deionized water samples were diluted 1:10 in de-ionized water. Table 7 lists the solubilities of Compound A and Compound B oleate salts in deionized water, PBS and n-octanol.

[4] = pig epidermis overlaid with microporous polypropylene membrane, EtOH/Water/Cineole + 5% (w/v) HPC, 5 mg/ml
[5] = pig epidermis, donor 55% EtOH 40% Water 5% Cineole, 5 mg/ml free base peptide
[6] = pig epidermis, donor 80% Prop. Glycol 15% Decanol 5% Cineole
[7] = pig epidermis, donor 80% Prop. Glycol 15% Dodecanol 5% Cineole

[4-(2-hydroxyethyl)]-1-piperazinylacetyl-D-Phe-c(Cys-Tyr-D-Trp-Lys-Abu-Cys)-Thr-NH2 [Compound B di-oleate]
Kp Value Obtained ([1]; Eqn. 10.11 from in vitro absorption across pig epidermis, optimized donor vehicle): 0.0003476 cm/h | steady-state plasma level (Cp) ([1]; predicted for human, Eqn. 10.8 with Kp of Eqn. 10.11, area 20 cm^2, 5 mg/cm^3 applied): 1.6998 ng/mL | Jmax [2, 4]: 4.200 μg/cm^2/hr | Jss [2, 4]: 0.309 μg/cm^2/hr | Lag Time [2, 4]: 1 h | Total Absorption [2, 4]: 56.89 μg/48 hr | Jmax [2, 5]: 9.224 μg/cm^2/hr | Jss [2, 5]: 5.552 μg/cm^2/hr | Lag Time [2, 5]: 1 h | Total Absorption [2, 5]: 814.44 μg/48 hr | Jmax [2, 6]: 6.085 μg/cm^2/hr | Jss [2, 6]: 4.539 μg/cm^2/hr | Lag Time [2, 6]: 3.5 h | Total Absorption [2, 6]: 917.18 μg/48 hr | Jmax [2, 7]: 3.983 μg/cm^2/hr | Jss [2, 7]: 3.335 μg/cm^2/hr | Lag Time [2, 7]: 5 h | Total Absorption [2, 7]: 600.35 μg/48 hr | Solubility PBS ([3]; PBS pH 7.4, 37° C.): 1302 µg/mL | Solubility DI H2O ([3]; deionized water, 37° C.): 50 µg/mL | Solubility n-Octanol ([3]; n-octanol, 37° C.): 136900 µg/mL

Source: patent US20130085105A1, “Transdermal Administration Of Peptides” (The Provost, Fellows and Scholars of the College of Holy …, priority 2010, published 2013)
